# Where no end group is shown, it is not given here.
# Target: T1, HA-tagged PA of FluB (Influenza B virus, UniProt Q9QLI9)
# T1 construct: upstream of the initiation codon and antisense primers with a deleted stop codon; made in house; host or cells: human 293T cells, transiently transfected; unpurified cell lysate
# Assay: biochemical
# Assay type: binding
# T1 sequence (Q9QLI9 whole entry): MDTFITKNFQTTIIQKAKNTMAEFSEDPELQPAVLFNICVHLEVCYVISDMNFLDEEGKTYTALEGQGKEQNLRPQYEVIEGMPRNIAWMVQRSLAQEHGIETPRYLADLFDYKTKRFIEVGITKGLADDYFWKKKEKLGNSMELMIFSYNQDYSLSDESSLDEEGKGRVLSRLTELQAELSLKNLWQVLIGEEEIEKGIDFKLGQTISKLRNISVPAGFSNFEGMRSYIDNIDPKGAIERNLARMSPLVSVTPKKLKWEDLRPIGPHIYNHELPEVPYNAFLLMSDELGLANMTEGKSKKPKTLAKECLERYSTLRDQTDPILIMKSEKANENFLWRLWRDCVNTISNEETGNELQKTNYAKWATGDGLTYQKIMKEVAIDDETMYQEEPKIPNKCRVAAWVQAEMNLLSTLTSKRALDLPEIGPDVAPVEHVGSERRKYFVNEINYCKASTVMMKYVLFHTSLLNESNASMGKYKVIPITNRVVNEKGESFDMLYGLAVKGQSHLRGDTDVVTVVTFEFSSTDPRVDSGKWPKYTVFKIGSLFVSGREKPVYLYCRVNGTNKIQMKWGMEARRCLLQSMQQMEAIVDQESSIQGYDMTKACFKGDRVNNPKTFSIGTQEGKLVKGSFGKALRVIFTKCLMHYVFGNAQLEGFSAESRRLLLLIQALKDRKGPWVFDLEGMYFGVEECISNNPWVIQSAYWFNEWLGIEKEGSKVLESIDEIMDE
row,Molecule,IC50
1,MDVNPFLLFLKVPAQ-NH2 [PB11-15 AT6F],750 nM
2,MDVNPCLLFLKVPAQ-NH2 [PB11-15 AT6C],> 3000 nM
3,"CC[C@H](C)[C@H](NC(=O)[C@H](CC(N)=O)NC(=O)[C@@H](N)CCSC)C(=O)N[C@@H](CC(N)=O)C(=O)N1CCC[C@H]1C(=O)N[C@H](C(=O)N[C@@H](CC(C)C)C(=O)N[C@@H](CC(C)C)C(=O)N[C@@H](Cc1ccccc1)C(=O)N[C@@H](CC(C)C)C(=O)N[C@@H](CCCCN)C(=O)N[C@H](C(=O)N1CCC[C@H]1C(=O)N[C@@H](C)C(=O)N[C@@H](CCC(N)=O)C(N)=O)C(C)C)[C@@H](C)O [PB11-15 AD2N,V3I]",> 3000 nM
4,"MDVNPYFLFLKVPAQ-NH2 [PB11-15 AT6Y,L7F]",345 nM
5,"MDVNPTLLFIDVPAQ-NH2 [PB11-15 AL10I,K11D]",> 3000 nM
6,MDVNPTFLFLKVPAQ-NH2 [PB11-15 AL7F],> 3000 nM
7,MDVNPHLLFLKVPAQ-NH2 [PB11-15 AT6H],> 3000 nM
8,MDVNPWLLFLKVPAQ-NH2 [PB11-15 AT6W],628 nM
9,"MNINPTLLFLKVPIQ-NH2 [PB11-15 AD2N,V3I,L14I]",> 3000 nM
10,MDVNPYLLFLKVPAQ-NH2 [PB11-15 AT6Y],107 nM
